Patent US9433621B2, “Substituted pyridine and pyrimidine derivatives and their use in treating viral infections” (Merck Sharp & Dohme Corp., priority 2010, dated 2016)

tested on: HCV replicon; assay: Cell-Based HCV Replicon Assay; settings: HCV Replicon assay, EC90 range, Table VI; read-out: EC90
Outline: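 Replicon cells, 5000/well, treated 3 days with 10 serial 2-fold dilutions (top 25 μM to 1 μM) in 0.5% DMSO, 10% FBS. Replicon RNA measured by multiplex Taqman RT-PCR (NS5B amplicon, GAPDH control); EC50/EC90 = concentration giving ΔCT of 1/3.2 over baseline from sigmoid fit.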

Row | Compound | EC90
1 | Cc1nc(NC(C)C2CC(F)(F)C2)nc(N[C@@H]2C[C@H](CO)[C@@H](O)[C@H]2O)c1-c1nc2c(C)nccc2s1 (stereo partly shown) [Example 5308] | < 500 nM

same assay, conditions: Hepatitis C virus, 72 h; Table IV; replicon cells, day 3, real time PCR; EC90 = concentration for ΔCT=3.2 over baseline; read-out: EC90

Row | Compound | EC90
2 | Cc1ccc([C@@H](C)Nc2nc(C)c(-c3nc4c(C)nccc4s3)c(N[C@@H]3C[C@H](CO)[C@@H](O)[C@@]3(C)O)n2)cc1 [compound 3815] | 30 nM

same assay, conditions: Hepatitis C virus; HCV Replicon assay, EC90 range, Table VI; read-out: EC90

Row | Compound | EC90
3 | CCO[C@H]1C[C@H](CNc2nc(C)c(-c3nc4c(C5CC5)nccc4s3)c(N[C@@H]3C[C@H](CO)[C@@H](O)[C@H]3O)n2)C1 [Example 5298] | < 500 nM
4 | CO[C@H]1C[C@@H]([C@@H](C)Nc2nc(C)c(-c3nc4c(C5CC5)nccc4s3)c(N[C@@H]3C[C@H](CO)[C@@H](O)[C@H]3O)n2)C1 [Example 5299] | < 500 nM
5 | Cc1nc(NC(C)C2CC(F)(F)C2)nc(N[C@@H]2C[C@H](CO)C(O)[C@H]2O)c1-c1nc2c(C3CC3)nccc2s1 (stereo partly shown) [Example 5300] | < 500 nM
6 | Cc1nc(NCC2CC3(CC3)C2)nc(N[C@@H]2C[C@H](CO)[C@@H](O)[C@H]2O)c1-c1nc2c(C3CC3)nccc2s1 [Example 5301] | < 500 nM
7 | CO[C@H]1C[C@H]([C@@H](C)Nc2nc(C)c(-c3nc4c(C)nccc4s3)c(N[C@@H]3C[C@H](CO)[C@@H](O)[C@H]3O)n2)C1 [Example 5302] | < 500 nM
8 | CO[C@H]1C[C@H]([C@@H](C)Nc2nc(C)c(-c3nc4c(C5CC5)nccc4s3)c(N[C@@H]3C[C@H](CO)[C@@H](O)[C@H]3O)n2)C1 [Example 5303] | < 500 nM
9 | Cc1nc(N)nc(N[C@@H]2C[C@H](CC(C)(C)O)[C@@H](O)[C@H]2O)c1-c1nc2c(C)nccc2s1 [Example 5304] | < 500 nM
10 | Cc1nc(NC(C)C2CC(F)(F)C2)nc(N[C@@H]2C[C@H](CO)[C@@H](O)[C@H]2O)c1-c1nc2c(C3CC3)nccc2s1 (stereo partly shown) [Example 5305] | 500 to 5000 nM
11 | CCO[C@H]1C[C@H](CNc2nc(C)c(-c3nc4c(C)nccc4s3)c(N[C@@H]3C[C@H](CC(C)(C)O)[C@@H](O)[C@H]3O)n2)C1 [Example 5306] | < 500 nM
12 | COCCNc1nc(C)c(-c2nc3c(C)nccc3s2)c(N[C@@H]2C[C@H](CC(C)(C)O)[C@@H](O)[C@H]2O)n1 [Example 5307] | < 500 nM
13 | Cc1nc(NCCSC(C)(C)C)nc(N[C@@H]2C[C@H](CC(C)(C)O)[C@@H](O)[C@H]2O)c1-c1nc2c(C)nccc2s1 [Example 5309] | < 500 nM
14 | COC[C@@H](C)Nc1nc(C)c(-c2nc3c(C)nccc3s2)c(N[C@@H]2C[C@H](CC(C)(C)O)[C@@H](O)[C@H]2O)n1 [Example 5310] | < 500 nM
15 | CO[C@H](C)CNc1nc(C)c(-c2nc3c(C)nccc3s2)c(N[C@@H]2C[C@H](CC(C)(C)O)[C@@H](O)[C@H]2O)n1 [Example 5311] | < 500 nM
16 | Cc1nc(NCC2CC(F)(F)C2)nc(N[C@@H]2C[C@H](CC(C)(C)O)[C@@H](O)[C@H]2O)c1-c1nc2c(C)nccc2s1 [Example 5312] | < 500 nM
